The values below come from patent publication US8575203B2, “Chemical compounds” (Boehringer Ingelheim International GmbH, priority 2010, dated 2013).

Recombinant human PDK1 enzyme (aa 52-556), sequence (O15530 52-556): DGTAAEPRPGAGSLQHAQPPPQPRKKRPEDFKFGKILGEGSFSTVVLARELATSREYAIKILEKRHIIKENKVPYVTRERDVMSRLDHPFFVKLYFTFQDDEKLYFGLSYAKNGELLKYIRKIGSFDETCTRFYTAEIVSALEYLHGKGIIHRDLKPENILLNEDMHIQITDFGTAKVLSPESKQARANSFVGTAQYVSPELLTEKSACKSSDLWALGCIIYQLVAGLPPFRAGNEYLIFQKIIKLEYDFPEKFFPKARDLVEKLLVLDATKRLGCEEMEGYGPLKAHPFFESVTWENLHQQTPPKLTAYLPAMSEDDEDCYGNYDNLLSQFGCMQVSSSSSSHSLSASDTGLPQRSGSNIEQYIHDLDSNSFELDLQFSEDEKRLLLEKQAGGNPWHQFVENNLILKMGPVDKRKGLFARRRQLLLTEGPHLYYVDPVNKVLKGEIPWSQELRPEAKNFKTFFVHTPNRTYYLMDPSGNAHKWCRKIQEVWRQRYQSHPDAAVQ

The test concerns the target Recombinant human PDK1 enzyme (aa 52-556) (Homo sapiens (Human), UniProt O15530). The test can be described thus: PDK1 kinase assay. The conditions noted are these: in vitro kinase assay, His6-PDK1 (aa 52-556), PDKtide, P33-ATP. In kind it is biochemical. The procedure: The activity of the compounds according to the invention on the kinase PDK1 which inhibits the signal transduction pathway is determined in an in vitro kinase assay with recombinantly prepared protein:
Recombinant human PDK1 enzyme (aa 52-556) linked at its N-terminal end to His6 is isolated from baculovirus-infected insect cells. Purified enzyme may be obtained for example from the University of Dundee, Scotland. The following components are combined in a well of a 96-well round-based dish (Greiner bio-one, No. 650101): • 15 μL of compound to be tested in varying concentrations (e.g. starting at 10 μM, and diluted in steps of 1:5) in APT buffer (50 mM Tris/Cl pH 7.5; 0.05% β-mercaptoethanol; 10 mM Mg-acetate; 0.0166% Tween 20; 3.33% DMSO) • 15 μL His6-PDK1 (aa 52-556) 3.33 ng/well) and PDKtide ([…]), synthesised by Pepceuticals Limited, Nottingham, United Kingdom; 25 μM final concentration); His6-PDK1 and PDKtide are together diluted accordingly in assay buffer (50 mM tris pH 7.5, 0.05% β-mercaptoethanol, 10 mM Mg-acetate); PDKtide is present in this mixture as an 83.3 μM solution. These 30 μl are routinely incubated for 30 min at RT. • 20 μL ATP solution (25 μM ATP with 1.0 μCi/well gamma-P33-ATP). The final concentration of Tween 20 is 0.005%.
The reaction is started by adding the ATP solution and the mixture is incubated for 90 min at RT. At the start of the reaction the dishes are shaken gently. The reaction is stopped by the addition of 50 μL/well of 500 mM phosphoric acid (H3PO4) and incubated for about 20 min at RT. The precipitate is transferred by harvesting onto filter plates (96-well microtitre filter plate: UniFilter GF/C; Perkin Elmer; No. 6005174), then washed 6 times with 50 mM H3PO4 and dried at 60° C. Then the plate is stuck down with sealing tape, 25 μL/well of scintillation solution (Microscint 0; Perkin Elmer; No. 6013611) are added and the amount of P33 precipitated is measured using the Wallac Betacounter. The measured data are evaluated using Graphpad Prism software.
With `O=C(NCC#Cc1ccc2ncnc(-c3ccccc3)c2c1)c1cncn(Cc2ccc(F)c(F)c2)c1=O` [II-65], the IC50 (in general, the concentration that inhibits the measured activity by half) was found to be 58 nM. Regarding `C=C(C)c1cnc2ccc(C#CCNC(=O)c3cncn(Cc4ccc(F)c(F)c4)c3=O)cc2n1` [I-69], the IC50 is 64 nM. Consider `CNc1ncnc2ccc(C#CCNC(=O)c3cc(Cl)nn(Cc4ccc(F)c(F)c4)c3=O)cc12` [II-58], for which the IC50 worked out at 10 nM.

Consider `CN1CCC(Nc2cnc3ccc(C#CCNC(=O)c4cncn(Cc5ccc(F)c(F)c5)c4=O)cc3n2)CC1` [I-19], for which the IC50 turned out to be 4 nM. As for `CN(C)CCCNc1cnc2ccc(C#CCNC(=O)c3cncn(Cc4ccc(F)c(F)c4)c3=O)cc2n1` [I-10], the half-inhibitory concentration (IC50) is 11 nM. `CCN(CC)c1c(C#N)cnc2ccc(C#CCNC(=O)c3cccn(Cc4ccc(F)c(F)c4)c3=O)cc12` [II-100]: the IC50 was determined as 276 nM.

Consider `CN1CCN(CCCOc2ccnc3ccc(C#CCNC(=O)c4cncn(Cc5ccc(F)c(F)c5)c4=O)cc23)CC1` [I-100], for which the IC50 is 14 nM. Regarding `CN(C)[C@H]1CC[C@H](Nc2cnc3ccc(C#CCNC(=O)c4cncn(Cc5ccc(F)c(F)c5)c4=O)cc3n2)CC1` [I-43], the IC50 was found to be 5 nM. With `O=C(NC1CC1)c1cnc2ccc(C#CCNC(=O)c3cncn(Cc4ccc(F)c(F)c4)c3=O)cc2c1` [II-73], the IC50 turned out to be 31 nM. In the case of `O=C(NCC#Cc1ccc2nccc(OC3CCNCC3)c2c1)c1cccn(Cc2ccc(F)c(F)c2)c1=O` [I-114], the concentration for half-maximal inhibition (IC50) turned out to be 23 nM. The value for `CN(C)CC(O)COc1ccnc2ccc(C#CCNC(=O)c3cncn(Cc4ccc(F)c(F)c4)c3=O)cc12` (stereo not shown) [I-104] was 71 nM. `O=C(NCC#Cc1ccc2ncnc(NCCc3cccs3)c2c1)c1cncn(Cc2ccc(F)c(F)c2)c1=O` [II-12]: the IC50 worked out at 161 nM. For the compound `CN(C)CCN(C)c1cnc2ccc(C#CCNC(=O)c3cncn(Cc4ccc(F)c(F)c4)c3=O)cc2n1` [I-11], the IC50 turned out to be 88 nM.

For `CN1CCC(N(C)c2cnc3ccc(C#CCNC(=O)c4cncn(Cc5ccc(F)c(F)c5)c4=O)cc3n2)CC1` [I-28], the half-inhibitory concentration (IC50) stood at 21 nM. `O=C(NCC#Cc1ccc2nccc(OCC3CCCNC3)c2c1)c1cncn(Cc2ccc(F)c(F)c2)c1=O` (stereo not shown) [I-123]: the IC50 came to 2 nM. With `O=C(NCC#Cc1ccc2ncnc(NCCc3ccco3)c2c1)c1cncn(Cc2ccc(F)c(F)c2)c1=O` [II-6], the IC50 was found to be 98 nM. With `O=C(NCC#Cc1ccc2ncnc(N3CC[C@H](O)C3)c2c1)c1cccn(Cc2ccc(F)c(F)c2)c1=O` [II-31], the IC50 was determined as 114 nM. For `O=C(NCC#Cc1ccc2ncc(N[C@H]3CC[C@H](N4CCOCC4)CC3)nc2c1)c1ccnn(Cc2ccc(F)c(F)c2)c1=O` [I-60], the half-inhibitory concentration (IC50) turned out to be 7 nM. In the case of `O=C(NCC#Cc1ccc2ncnc(N3CCCC3)c2c1)c1cccn(Cc2ccc(F)c(F)c2)c1=O` [II-27], the IC50 came to 52 nM.

For `CN(C)CCCOc1ccnc2ccc(C#CCNC(=O)c3cncn(Cc4ccc(F)c(F)c4)c3=O)cc12` [I-88], the IC50 amounted to 15 nM. For the compound `O=C(NCC#Cc1ccc2nccc(NC3CC3)c2c1)c1cncn(Cc2ccc(F)c(F)c2)c1=O` [I-115], the IC50 was found to be 780 nM.

In the case of `O=C(NCC#Cc1ccc2ncc(CC3CCNCC3)nc2c1)c1cncn(Cc2ccc(F)c(F)c2)c1=O` [I-66], the IC50 is 654 nM. The value for `CCN(CC)C(=O)c1cnc2ccc(C#CCNC(=O)c3cncn(Cc4ccc(F)c(F)c4)c3=O)cc2c1` [II-71] was 1000 nM; that for `O=C(NCC#Cc1ccc2ncc(NC3CCN(C4COC4)CC3)nc2c1)c1cncn(Cc2ccc(F)c(F)c2)c1=O` [I-56] was 3 nM; that for `O=C(NCC#Cc1ccc2ncc(N[C@H]3CC[C@H](N4CCN(CC5CC5)CC4)CC3)nc2c1)c1cncn(Cc2ccc(F)c(F)c2)c1=O` [I-42] was 3 nM. As for `COc1cccc(CN(C)c2ncnc3ccc(C#CCNC(=O)c4cccn(Cc5ccc(F)c(F)c5)c4=O)cc23)c1` [II-45], the IC50 was 63 nM.

`CC(C)N(C)c1c(C#N)cnc2ccc(C#CCNC(=O)c3cccn(Cc4ccc(F)c(F)c4)c3=O)cc12` [II-101]: the half-inhibitory concentration (IC50) is 148 nM. Take `CN(C)CCNc1ccnc2ccc(C#CCNC(=O)c3cccn(Cc4ccc(F)c(F)c4)c3=O)cc12` [I-118]: the IC50 was found to be 853 nM. For the compound `CNCCCN(C)c1ncnc2ccc(C#CCNC(=O)c3cccn(Cc4ccc(F)c(F)c4)c3=O)cc12` [II-28], the IC50 turned out to be 110 nM. Regarding `CN(CCc1ccccc1)c1ncnc2ccc(C#CCNC(=O)c3cncn(Cc4ccc(F)c(F)c4)c3=O)cc12` [II-3], the IC50 came out at 134 nM. As to `CN1CCN(C(=O)c2cnc3ccc(C#CCNC(=O)c4cncn(Cc5ccc(F)c(F)c5)c4=O)cc3c2)CC1` [II-84], the IC50 came out at 405 nM. The value for `COCCN1CCC(Nc2cnc3ccc(C#CCNC(=O)c4ccnn(Cc5ccc(F)c(F)c5)c4=O)cc3n2)CC1` [I-53] was 8 nM. As to `N[C@H]1CC[C@H](Nc2cnc3ccc(C#CCNC(=O)c4cncn(Cc5ccc(F)c(F)c5)c4=O)cc3n2)CC1` [I-34], the IC50 was determined as 3 nM. The value for `CN1CC[C@@H](COc2ccnc3ccc(C#CCNC(=O)c4cccn(Cc5cc(F)c(F)c(F)c5)c4=O)cc23)C1` [I-125.12] was 6 nM; that for `CON(C)c1ncnc2ccc(C#CCNC(=O)c3cncn(Cc4ccc(F)c(F)c4)c3=O)cc12` [II-62] was 16 nM. On to `CN1CC(Nc2ncnc3ccc(C#CCNC(=O)c4cncn(Cc5ccc(F)c(F)c5)c4=O)cc23)C1` [II-2], for which the IC50 amounted to 171 nM. On to `O=C(NCC#Cc1ccc2ncc(C(=O)N3CCNCC3)cc2c1)c1cncn(Cc2ccc(F)c(F)c2)c1=O` [II-83], for which the IC50 was determined as 286 nM.

On to `O=C(NCC#Cc1ccc2ncc(N[C@H]3CC[C@H](N4CCOCC4)CC3)nc2c1)c1cccn([C@H](CO)c2ccccc2)c1=O` [I-59], for which the IC50 was determined as 5 nM. Regarding `O=C(NCC#Cc1ccc2ncnc(N3CCNCC3)c2c1)c1cncn(Cc2ccc(F)c(F)c2)c1=O` [II-9], the half-inhibitory concentration (IC50) came to 443 nM. Regarding `CN(C)c1ncnc2ccc(C#CCNC(=O)c3cccn(Cc4cc[nH]n4)c3=O)cc12` [II-42], the IC50 is 697 nM.

As to `CN1CCCC(Nc2cnc3ccc(C#CCNC(=O)c4cncn(Cc5ccc(F)c(F)c5)c4=O)cc3n2)C1` (stereo not shown) [I-21], the half-inhibitory concentration (IC50) turned out to be 149 nM. As for `CC1(O)CCN(c2ncnc3ccc(C#CCNC(=O)c4cccn(Cc5ccc(F)c(F)c5)c4=O)cc23)CC1` [II-41], the IC50 turned out to be 61 nM.

With `COc1ccc(CCNc2ncnc3ccc(C#CCNC(=O)c4cncn(Cc5ccc(F)c(F)c5)c4=O)cc23)cc1OC` [II-8], the IC50 was 91 nM. Turning to `CNC(=O)c1cnc2ccc(C#CCNC(=O)c3cncn(Cc4ccc(F)c(F)c4)c3=O)cc2c1` [II-72], the IC50 was 45 nM. Turning to `CN1CCC(Nc2cnc3ccc(C#CCNC(=O)c4cncn(Cc5ccc(F)c(F)c5)c4=O)cc3c2)CC1` [I-70], the IC50 was found to be 1 nM. The value for `CCN(C)c1c(C#N)cnc2ccc(C#CCNC(=O)c3cccn(Cc4ccc(F)c(F)c4)c3=O)cc12` [II-103] was 77 nM; that for `CC1(CNc2ncnc3ccc(C#CCNC(=O)c4cccn(Cc5ccc(F)c(F)c5)c4=O)cc23)COC1` [II-36] was 468 nM.

For the compound `CN(c1ncnc2ccc(C#CCNC(=O)c3cncn(Cc4ccc(F)c(F)c4)c3=O)cc12)C(C)(C)C` [II-19], the IC50 came out at 500 nM. Turning to `CN(C)CC(C)(C)COc1ccnc2ccc(C#CCNC(=O)c3cccn(Cc4ccc(F)c(F)c4)c3=O)cc12` [I-103], the IC50 is 33 nM.

In the case of `CN(Cc1ccccc1)c1ncnc2ccc(C#CCNC(=O)c3cncn(Cc4ccc(F)c(F)c4)c3=O)cc12` [II-5], the IC50 stood at 16 nM. The figure for `O=C(NCC#Cc1ccc2ncc(O)cc2c1)c1cncn(Cc2ccc(F)c(F)c2)c1=O` [I-86] is 86 nM. `CN(Cc1ccccc1)c1c(C#N)cnc2ccc(C#CCNC(=O)c3cccn(Cc4ccc(F)c(F)c4)c3=O)cc12` [II-98]: the half-maximal inhibitory concentration (IC50) turned out to be 184 nM. Regarding `CC(N)CCOc1ccnc2ccc(C#CCNC(=O)c3cccn(Cc4ccc(F)c(F)c4)c3=O)cc12` (stereo not shown) [I-125.7], the IC50 was found to be 32 nM. For `O=C(NCC#Cc1ccc2ncnc(NC3CCN(Cc4ccccc4)CC3)c2c1)c1cncn(Cc2ccc(F)c(F)c2)c1=O` [II-23], the IC50 stood at 142 nM. The figure for `O=C(NCC#Cc1ccc2nccc(NC3CC3)c2c1)c1cccn(Cc2ccc(F)c(F)c2)c1=O` [I-116] is 1000 nM. The value for `CN1CCC(NC(=O)c2cnc3ccc(C#CCNC(=O)c4cncn(Cc5ccc(F)c(F)c5)c4=O)cc3c2)CC1` [II-74] was 12 nM; that for `COCCCNc1ncnc2ccc(C#CCNC(=O)c3cncn(Cc4ccc(F)c(F)c4)c3=O)cc12` [II-14] was 158 nM. In the case of `CN(C)C(=O)CNc1ncnc2ccc(C#CCNC(=O)c3cccn(Cc4ccc(F)c(F)c4)c3=O)cc12` [II-50], the IC50 amounted to 182 nM.
